# Data reported in patent US20260217701A1, “SELECTIVE BET INHIBITORS AND USES THEREOF” (Tay Therapeutics Limited, priority 2022, published 2026).
# Several values for one entry are separate records, joined by “and”; a condition that tells them apart may be missing. Equal values may be shown once.
# Test system: imiquimod-induced psoriasis
# Assay: Imiquimod-induced psoriasis model
# Format: in vivo, mice
# Parameters: Spleen Weight / Spleen Weight Ratio: unit not given here
# Conditions: for Mean scores of the presence of erythema on the skin of animals at the area of induction of psoriasis / Mean scores of the presence of induration on the skin of animals at the area of induction of psoriasis / Mean scores of the presence of peeling on the skin of animals at the area of induction of psoriasis: mean ± SEM
# Method in brief: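 Mice given topical imiquimod (5% cream) daily on depilated backs Days 1–14; Compound A in 5% DMSO/40% PEG-400/55% saline from Day 8, clobetasol topical as reference. Daily PASI (erythema, induration, peeling, each 0–4, summed) Days 8–15; spleen weight, open-field behaviour, serum IL-1B, IL-6, IL-17, TNF-α, IL-22, IL-23 at Day 15.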
# [1] = IMI-psoriasis model, mice, 1 mg/kg, individual animals
# [2] = IMI-psoriasis model, mice, 3 mg/kg, individual animals
# [3] = IMI-psoriasis model, mice, 10 mg/kg, individual animals
# [4] = IMI + 1 mg/kg, D8 (before start of treatment)
# [5] = IMI + 3 mg/kg, D8 (before start of treatment)
smiles,measurement,setting,value
"Cn1cc(-c2ccccc2)c(-c2cn(C)c(=O)c3[nH]c(-c4cnn(C(F)(F)F)c4)cc23)cc1=O [Compound A, 6-methyl-4-(1-methyl-2-oxo-5-phenyl-1,2-dihydropyridin-4-yl)-2-(1-(trifluoromethyl)-1H-pyrazol-4-yl)-1,6-dihydro-7H-pyrrolo[2,3-c]pyridin-7-one]",Use Enrichment Mean D8-D15,"IMI-psoriasis model, mean D8-D15, 10 mg/kg, per cage (two animals)",2.86 and 3.86 and 3.50 and 3.14
same,Spleen Weight,[1],219.42 and 202.00 and 212.50 and 233.20 and 220.14 and 227.26 and 202.76 and 213.15
same,Spleen Weight Ratio,[1],1394.03 and 1137.39 and 1273.22 and 1367.74 and 1289.63 and 1310.61 and 1176.78 and 1298.90
same,Spleen Weight,[2],199.90 and 205.09 and 178.46 and 185.94 and 214.46 and 180.80 and 187.63 and 151.76
same,Spleen Weight Ratio,[2],1084.06 and 1245.23 and 967.79 and 1175.35 and 1265.25 and 1069.19 and 1163.24 and 921.43
same,Spleen Weight,[3],156.01 and 178.03 and 139.03 and 157.80 and 191.54 and 195.58 and 151.42 and 172.86
same,Spleen Weight Ratio,[3],939.82 and 1083.57 and 757.66 and 813.82 and 1075.46 and 1071.08 and 902.92 and 1083.08
same,"cytokine levels (IL-17, IL-22, IL-1β, IL-6, TNF-α, IL-23) relative to vehicle",all tested doses,marked reduction of all cytokines assayed
same,Spleen Weight Ratio,"day 15, 1, 3, 10 mg/kg",dose-dependent decrease
same,Mean scores of the presence of erythema on the skin of animals at the area of induction of psoriasis,[4],2.0 ± 0.0
same,Mean scores of the presence of induration on the skin of animals at the area of induction of psoriasis,[4],2.6 ± 0.2
same,Mean scores of the presence of peeling on the skin of animals at the area of induction of psoriasis,[4],2.6 ± 0.2
same,Mean scores of the presence of erythema on the skin of animals at the area of induction of psoriasis,"IMI + 1 mg/kg, D9",2.0 ± 0.3
same,Mean scores of the presence of induration on the skin of animals at the area of induction of psoriasis,"IMI + 1 mg/kg, D9",2.4 ± 0.2
same,Mean scores of the presence of peeling on the skin of animals at the area of induction of psoriasis,"IMI + 1 mg/kg, D9",2.6 ± 0.2
same,Mean scores of the presence of erythema on the skin of animals at the area of induction of psoriasis,"IMI + 1 mg/kg, D10",1.75 ± 0.2
same,Mean scores of the presence of induration on the skin of animals at the area of induction of psoriasis,"IMI + 1 mg/kg, D10",2.1 ± 0.2
same,Mean scores of the presence of peeling on the skin of animals at the area of induction of psoriasis,"IMI + 1 mg/kg, D10",2.1 ± 0.1
same,Mean scores of the presence of erythema on the skin of animals at the area of induction of psoriasis,"IMI + 1 mg/kg, D11",1.9 ± 0.1
same,Mean scores of the presence of induration on the skin of animals at the area of induction of psoriasis,"IMI + 1 mg/kg, D11",2.0 ± 0.3
same,Mean scores of the presence of peeling on the skin of animals at the area of induction of psoriasis,"IMI + 1 mg/kg, D11",1.9 ± 0.2
same,Mean scores of the presence of erythema on the skin of animals at the area of induction of psoriasis,"IMI + 1 mg/kg, D12",1.5 ± 0.2
same,Mean scores of the presence of induration on the skin of animals at the area of induction of psoriasis,"IMI + 1 mg/kg, D12",1.6 ± 0.2
same,Mean scores of the presence of peeling on the skin of animals at the area of induction of psoriasis,"IMI + 1 mg/kg, D12",1.3 ± 0.2
same,Mean scores of the presence of erythema on the skin of animals at the area of induction of psoriasis,"IMI + 1 mg/kg, D13",0.5 ± 0.2
same,Mean scores of the presence of induration on the skin of animals at the area of induction of psoriasis,"IMI + 1 mg/kg, D13",1.5 ± 0.2
same,Mean scores of the presence of peeling on the skin of animals at the area of induction of psoriasis,"IMI + 1 mg/kg, D13",1.1 ± 0.1
same,Mean scores of the presence of erythema on the skin of animals at the area of induction of psoriasis,"IMI + 1 mg/kg, D14",0.3 ± 0.2
same,Mean scores of the presence of induration on the skin of animals at the area of induction of psoriasis,"IMI + 1 mg/kg, D14",0.9 ± 0.2
same,Mean scores of the presence of peeling on the skin of animals at the area of induction of psoriasis,"IMI + 1 mg/kg, D14",1.0 ± 0.0
same,Mean scores of the presence of erythema on the skin of animals at the area of induction of psoriasis,"IMI + 1 mg/kg, D15",0.0 ± 0.0
same,Mean scores of the presence of induration on the skin of animals at the area of induction of psoriasis,"IMI + 1 mg/kg, D15",0.5 ± 0.2
same,Mean scores of the presence of peeling on the skin of animals at the area of induction of psoriasis,"IMI + 1 mg/kg, D15",0.7 ± 0.2
same,Mean scores of the presence of erythema on the skin of animals at the area of induction of psoriasis,[5],1.9 ± 0.1
same,Mean scores of the presence of induration on the skin of animals at the area of induction of psoriasis,[5],2.5 ± 0.2
same,Mean scores of the presence of peeling on the skin of animals at the area of induction of psoriasis,[5],2.3 ± 0.2
same,Mean scores of the presence of erythema on the skin of animals at the area of induction of psoriasis,"IMI + 3 mg/kg, D9",1.6 ± 0.2
same,Mean scores of the presence of induration on the skin of animals at the area of induction of psoriasis,"IMI + 3 mg/kg, D9",2.6 ± 0.2
same,Mean scores of the presence of peeling on the skin of animals at the area of induction of psoriasis,"IMI + 3 mg/kg, D9",2.5 ± 0.2
same,Mean scores of the presence of erythema on the skin of animals at the area of induction of psoriasis,"IMI + 3 mg/kg, D10",1.4 ± 0.2
same,Mean scores of the presence of induration on the skin of animals at the area of induction of psoriasis,"IMI + 3 mg/kg, D10",2.1 ± 0.1
same,Mean scores of the presence of peeling on the skin of animals at the area of induction of psoriasis,"IMI + 3 mg/kg, D10",2.0 ± 0.2
same,Mean scores of the presence of erythema on the skin of animals at the area of induction of psoriasis,"IMI + 3 mg/kg, D11",1.0 ± 0.0
same,Mean scores of the presence of induration on the skin of animals at the area of induction of psoriasis,"IMI + 3 mg/kg, D11",1.4 ± 0.2
same,Mean scores of the presence of peeling on the skin of animals at the area of induction of psoriasis,"IMI + 3 mg/kg, D11",1.6 ± 0.2
same,Mean scores of the presence of erythema on the skin of animals at the area of induction of psoriasis,"IMI + 3 mg/kg, D12",0.8 ± 0.2
same,Mean scores of the presence of induration on the skin of animals at the area of induction of psoriasis,"IMI + 3 mg/kg, D12",1.4 ± 0.2
same,Mean scores of the presence of peeling on the skin of animals at the area of induction of psoriasis,"IMI + 3 mg/kg, D12",1.4 ± 0.2
same,Mean scores of the presence of erythema on the skin of animals at the area of induction of psoriasis,"IMI + 3 mg/kg, D13",0.3 ± 0.2
same,Mean scores of the presence of induration on the skin of animals at the area of induction of psoriasis,"IMI + 3 mg/kg, D13",0.6 ± 0.2
same,Mean scores of the presence of peeling on the skin of animals at the area of induction of psoriasis,"IMI + 3 mg/kg, D13",0.9 ± 0.1
same,Mean scores of the presence of erythema on the skin of animals at the area of induction of psoriasis,"IMI + 3 mg/kg, D14",0.3 ± 0.2
same,Mean scores of the presence of induration on the skin of animals at the area of induction of psoriasis,"IMI + 3 mg/kg, D14",0.3 ± 0.2
same,Mean scores of the presence of peeling on the skin of animals at the area of induction of psoriasis,"IMI + 3 mg/kg, D14",0.3 ± 0.2
